Assay [1] addresses T1, Beta-galactosidase (Escherichia coli, UniProt Q8VNN2). The format is functional.
For assay [2], the target named is T1, Beta-galactosidase. As to the kind of experiment: PubChem AID 485352. The format is functional.
Assay [3] can be described thus: HepG2 cell cytotoxicity, dose response, cytotoxicity control for Shn3 inhibitor project, CellTiter-Glo, cherry-picked (AID 624134). The format is functional, cell-based. Background: In ATP-based viability assays light output follows the ATP content of the culture.
The test system of assay [4] is INS1. As to the kind of experiment: beta cell apoptosis inhibitors, cytokine rescue, dose response, luminescence, retest (AID 449756).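 Further: cell death triggered by IL-1 beta plus TNF-alpha plus IFN-gamma mixture; protective hits raise ATP signal compared with cytokine alone wells.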 The format is functional, cell-based. As to conditions: Rattus norvegicus.
Assay [5] is described as follows: control 3'UTR Renilla luciferase suppression, dose response, counter-screen for Shn3 inhibitor project, cell-based, Clone20-Shn3RL, cherry-picked (AID 624133). The format is functional.
Assay [6] concerns the target T2, DNA repair and recombination protein RAD54-like (Homo sapiens, UniProt Q92698).
T2 sequence (Q92698 whole entry): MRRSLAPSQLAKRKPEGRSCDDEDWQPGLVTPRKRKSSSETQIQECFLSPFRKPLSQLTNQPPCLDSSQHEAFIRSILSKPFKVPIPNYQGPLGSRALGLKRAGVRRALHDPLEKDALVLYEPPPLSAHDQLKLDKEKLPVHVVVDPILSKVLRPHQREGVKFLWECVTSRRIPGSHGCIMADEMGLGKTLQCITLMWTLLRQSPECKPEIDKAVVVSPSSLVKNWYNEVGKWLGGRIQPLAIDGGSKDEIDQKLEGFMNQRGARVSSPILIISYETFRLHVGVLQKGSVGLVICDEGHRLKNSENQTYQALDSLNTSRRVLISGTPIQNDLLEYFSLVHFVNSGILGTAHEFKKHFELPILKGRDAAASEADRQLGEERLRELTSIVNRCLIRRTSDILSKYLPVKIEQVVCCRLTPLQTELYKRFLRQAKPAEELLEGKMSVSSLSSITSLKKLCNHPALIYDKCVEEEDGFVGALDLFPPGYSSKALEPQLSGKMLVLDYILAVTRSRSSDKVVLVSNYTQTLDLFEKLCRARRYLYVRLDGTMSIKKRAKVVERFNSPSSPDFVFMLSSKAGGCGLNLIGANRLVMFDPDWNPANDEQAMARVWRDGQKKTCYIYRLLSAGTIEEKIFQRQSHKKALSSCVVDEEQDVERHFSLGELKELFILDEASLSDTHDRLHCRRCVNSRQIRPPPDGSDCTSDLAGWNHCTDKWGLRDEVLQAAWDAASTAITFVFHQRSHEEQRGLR
As to the kind of experiment: inhibitors of human RAD54 branch migration, confirmation, biochemical, fluorescence, cherry-picked samples, dose series (AID 651657). The format is functional.

Assay [7] concerns the target T3, Tyrosine-protein phosphatase non-receptor type 22 (Homo sapiens, UniProt Q9Y2R2).
T3 sequence (Q9Y2R2 whole entry): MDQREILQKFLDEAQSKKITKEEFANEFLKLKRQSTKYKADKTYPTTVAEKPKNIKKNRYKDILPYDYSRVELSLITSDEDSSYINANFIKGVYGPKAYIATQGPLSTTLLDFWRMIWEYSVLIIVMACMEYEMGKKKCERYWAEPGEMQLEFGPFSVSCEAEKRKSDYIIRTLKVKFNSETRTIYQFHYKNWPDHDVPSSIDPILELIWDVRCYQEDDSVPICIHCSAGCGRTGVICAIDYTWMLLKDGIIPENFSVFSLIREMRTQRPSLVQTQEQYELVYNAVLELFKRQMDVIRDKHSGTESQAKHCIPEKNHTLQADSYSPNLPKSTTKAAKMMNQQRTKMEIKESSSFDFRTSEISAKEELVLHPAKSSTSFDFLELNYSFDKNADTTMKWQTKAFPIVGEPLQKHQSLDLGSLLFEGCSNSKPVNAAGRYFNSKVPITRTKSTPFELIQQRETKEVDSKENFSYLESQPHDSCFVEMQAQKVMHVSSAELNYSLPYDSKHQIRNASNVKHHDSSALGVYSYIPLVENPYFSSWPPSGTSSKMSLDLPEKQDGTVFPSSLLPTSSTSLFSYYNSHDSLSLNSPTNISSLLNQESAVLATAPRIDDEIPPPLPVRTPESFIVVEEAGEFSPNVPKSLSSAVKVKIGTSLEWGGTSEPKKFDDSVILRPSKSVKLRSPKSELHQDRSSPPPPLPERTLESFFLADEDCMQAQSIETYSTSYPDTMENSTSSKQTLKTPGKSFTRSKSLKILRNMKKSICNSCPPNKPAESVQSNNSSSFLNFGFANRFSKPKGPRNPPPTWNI
As to the kind of experiment: LYP1 Fluorescent Assay using OMFP substrate for In Vitro dose response studies. [Related pubchem assays (depositor defined):AID1779, AID1784, AID435024].

The target in assay [8] is T4, Dual specificity protein phosphatase 6 (Rattus norvegicus, UniProt Q64346).
T4 sequence (Q64346 whole entry): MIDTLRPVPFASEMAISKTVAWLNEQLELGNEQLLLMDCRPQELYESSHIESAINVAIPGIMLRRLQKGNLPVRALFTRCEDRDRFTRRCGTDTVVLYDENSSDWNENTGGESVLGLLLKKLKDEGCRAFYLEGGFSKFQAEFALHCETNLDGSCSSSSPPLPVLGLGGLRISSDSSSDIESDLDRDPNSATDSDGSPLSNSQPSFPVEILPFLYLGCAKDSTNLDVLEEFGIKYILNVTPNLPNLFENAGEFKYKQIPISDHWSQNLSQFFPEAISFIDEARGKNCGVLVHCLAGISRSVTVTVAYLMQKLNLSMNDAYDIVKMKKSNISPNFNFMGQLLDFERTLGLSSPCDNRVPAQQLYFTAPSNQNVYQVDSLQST
As to the kind of experiment: MKP-3 phosphatase inhibitors, primary screen, biochemical, rat enzyme, in vitro (AID 425).

The target in assay [9] is T5, Long-chain-fatty-acid--AMP ligase FadD28 (Mycobacterium tuberculosis, UniProt P9WQ59).
T5 sequence (P9WQ59 whole entry): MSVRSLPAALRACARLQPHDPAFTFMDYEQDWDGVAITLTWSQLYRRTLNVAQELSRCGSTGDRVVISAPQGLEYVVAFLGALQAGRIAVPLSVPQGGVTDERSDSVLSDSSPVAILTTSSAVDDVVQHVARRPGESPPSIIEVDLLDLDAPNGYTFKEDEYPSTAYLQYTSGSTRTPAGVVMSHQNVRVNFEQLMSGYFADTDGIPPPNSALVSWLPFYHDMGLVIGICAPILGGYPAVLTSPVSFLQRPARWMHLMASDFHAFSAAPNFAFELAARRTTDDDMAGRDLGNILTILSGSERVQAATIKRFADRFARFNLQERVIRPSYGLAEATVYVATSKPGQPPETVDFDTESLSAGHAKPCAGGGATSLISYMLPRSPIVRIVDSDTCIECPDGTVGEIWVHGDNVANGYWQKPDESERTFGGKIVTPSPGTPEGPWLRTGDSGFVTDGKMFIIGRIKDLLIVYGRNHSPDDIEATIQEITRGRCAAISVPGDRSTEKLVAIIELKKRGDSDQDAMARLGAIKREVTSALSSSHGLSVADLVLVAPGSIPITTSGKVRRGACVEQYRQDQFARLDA
As to the kind of experiment: Fluorescence polarization aasay to screen for inhibitors that compete for the binding of FadD28 to a bisubstrate Measured in Biochemical System Using Plate Reader - 2147-01_Inhibitor_Dose_CherryPick_Activity. The format is functional, Mycobacterium tuberculosis H37Rv. A general note: Fluorescence polarisation rises when a labelled molecule tumbles more slowly, as on binding a larger partner.

Assay [10] has as its target T3, Tyrosine-protein phosphatase non-receptor type 22. As to the kind of experiment: inhibitors of LYP phosphatase, biochemical, fluorescence intensity, uHTS (AID 1779).

The values that follow come from ChEMBL document CHEMBL1201862, “PubChem BioAssay data set” (2004).

Active and inactive are the calls of the source.

T1 sequence (Q8VNN2 whole entry): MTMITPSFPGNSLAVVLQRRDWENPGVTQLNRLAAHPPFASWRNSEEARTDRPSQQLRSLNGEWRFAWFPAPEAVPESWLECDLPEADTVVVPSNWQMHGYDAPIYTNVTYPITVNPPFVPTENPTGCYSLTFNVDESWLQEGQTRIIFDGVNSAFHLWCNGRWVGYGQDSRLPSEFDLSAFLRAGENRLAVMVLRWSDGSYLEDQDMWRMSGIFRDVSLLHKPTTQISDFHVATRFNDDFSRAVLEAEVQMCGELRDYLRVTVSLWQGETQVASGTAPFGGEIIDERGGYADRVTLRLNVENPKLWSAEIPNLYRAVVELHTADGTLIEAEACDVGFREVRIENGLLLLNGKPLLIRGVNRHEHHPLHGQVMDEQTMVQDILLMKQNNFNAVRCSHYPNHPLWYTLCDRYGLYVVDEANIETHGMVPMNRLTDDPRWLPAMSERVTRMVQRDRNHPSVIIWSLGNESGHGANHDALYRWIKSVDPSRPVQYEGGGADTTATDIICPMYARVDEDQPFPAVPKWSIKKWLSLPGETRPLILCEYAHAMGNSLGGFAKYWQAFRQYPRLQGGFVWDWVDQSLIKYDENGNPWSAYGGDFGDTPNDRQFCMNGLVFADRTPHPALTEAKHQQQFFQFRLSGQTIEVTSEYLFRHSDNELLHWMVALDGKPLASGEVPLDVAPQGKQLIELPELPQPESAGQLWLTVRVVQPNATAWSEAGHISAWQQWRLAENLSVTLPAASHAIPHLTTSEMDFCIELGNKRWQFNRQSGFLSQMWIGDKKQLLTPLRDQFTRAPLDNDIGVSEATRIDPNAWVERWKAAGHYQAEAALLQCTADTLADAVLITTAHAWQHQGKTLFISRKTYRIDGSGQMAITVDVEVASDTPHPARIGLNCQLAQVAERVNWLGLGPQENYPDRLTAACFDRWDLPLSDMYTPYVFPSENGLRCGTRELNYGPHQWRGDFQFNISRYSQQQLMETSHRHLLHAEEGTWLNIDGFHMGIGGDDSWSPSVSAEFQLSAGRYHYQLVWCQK

`C=C1C(=O)O[C@@H]2C[C@@H](C)[C@@H]3C=CC(=O)[C@@]3(C)[C@@H](OC(=O)CC(=O)O[C@H]3[C@@H]4C(=C)C(=O)O[C@@H]4C[C@@H](C)[C@@H]4C=CC(=O)[C@]43C)[C@H]12`: the EC50 in assay [1] was > 31.5 µM (inactive); in [2], > 40 µM (inactive). Also, the AC50 in [3] was 0.895 µM (active); in assay [4], 0.312 µM (active); in assay [5], 0.28 µM (active).

As for `CCN(CC)CCN1C(=O)c2cccc3cc(N)cc(c23)C1=O`, the AC50 in assay [6] was 8.83 µM (active).

As for `O=C(O)c1cccc(-n2cccc2/C=C2/NC(=O)N(c3ccc(Cl)cc3)C2=O)c1`, the values for the IC50 in assay [7], in assay [8] and in assay [10] were 4.54 µM (active), 3.28 µM (active) and 5.47 µM (active), respectively. The AC50 in [9] is 58 µM (active).

As usually defined, the EC50 is the midpoint of the concentration-response curve. The term AC50 denotes the midpoint of the concentration-response curve, whichever way the signal moves. Usually IC50 stands for the concentration at which inhibition is half-maximal.
